Experiments:
AncD1 [1] = system: AncD1; set-up: steady-state kinetics with 20 uM F420, absorbance decrease at 400 nm, pH 7.5, 25 °C; conditions: 20 uM F420, pH 7.5, 25 °C; substrate
Description: Sugars (phosphorylated as well as non-phosphorylated) and alcohols were tested as substrates. D-glucose-6-phosphate (G6P) was used as a prototype substrate to initially verify activity. Other 6-phosphorylated sugars tested were: D-fructose-6-phosphate, D-mannose-6-phosphate and D-glucosamine-6-phosphate. D-glucose, D-fructose, D-mannose, D-xylose, D-galactose-1-phosphate, D-glucose-1-phosphate, isopropanol, isobutanol, butanol and cyclohexanol were also tested for activity. Kinetics of all enzymes was measured in a Synergy MX microplate reader (BioTek) using 96-well F-bottom plates (Greiner Bio-One GmbH) at 25 °C. Assays were performed in a volume of 200 µL, containing 20 µM F420, 50–100 nM of enzyme and varying concentrations of the substrates in buffer (50 mM KPi, pH 7.5). Reaction was started by adding 100 µL of enzyme. All measurements were followed at λ = 400 nm for 3 min. The observed rates (kobs) were calculated by using a molecular extinction coefficient of ε400 (F420) = 25.7 mM^−1cm^−1. All experiments were repeated three times.

FGD-Cryar (FSD-Cryar) = target: T1, FGD-Cryar (FSD-Cryar) (Cryptosporangium arvum, UniProt A0A010YY07); experiment: fluorescence quenching of FMN (ex […] nm, em […] nm), one-site fit; assay type: binding; conditions: read-out: FGD-Noca (FSD-Noca) / kcat [s^-1]
T1 construct: gene CryarDRAFT_1153

FGD-Noca (FSD-Noca) = target: T2, FGD-Noca (FSD-Noca) (Nocardioidaceae bacterium Broad-1, UniProt E9V3D1); experiment: as above; assay type: binding; conditions: read-out: FGD-Noca (FSD-Noca) / kcat [s^-1]
T2 construct: full-length, codon-optimised, expressed in E. coli TOP10 (pBAD) as native protein, no SUMO; purified by anion exchange

AncD1 [2] = experiment: as above; assay type: binding; conditions: 0.1 µM cofactor, 25 °C; apparent KD; read-out: FGD-Noca (FSD-Noca) / kcat [s^-1]

| Structure (SMILES) | Km (AncD1 [1]) | Kd (FGD-Cryar (FSD-Cryar)) | Kd (FGD-Noca (FSD-Noca)) | Kd (AncD1 [2]) |
| --- | --- | --- | --- | --- |
| O=P(O)(O)OC[C@H]1OC(O)[C@H](O)[C@@H](O)[C@@H]1O (stereo partly drawn) [D-glucose-6-phosphate] | 1 ± 0.19 mM | – | – | – |
| Cc1cc2nc3c(=O)[nH]c(=O)nc-3n(C[C@H](O)[C@H](O)[C@H](O)COP(=O)(O)O)c2cc1C [FMN] | – | > 150 µM | > 150 µM | > 150 µM |
| O=P(O)(O)OC[C@H]1OC(O)(CO)[C@@H](O)[C@@H]1O (stereo partly drawn) [D-fructose-6-phosphate] | 45 ± 15 mM | – | – | – |
| O=P(O)(O)OC[C@H]1OC(O)[C@@H](O)[C@@H](O)[C@@H]1O (stereo partly drawn) [D-mannose-6-phosphate] | 7.2 ± 4.7 mM | – | – | – |

— PMC6279831, “Reconstructing the evolutionary history of F420-dependent dehydrogenases” (Scientific Reports, 2018)
